Tests used:
Type in all cases: cell-based, human
Conditions in all cases: nHEK, 24 h
DSG1 = assay: Modulation of DSG1 gene expression of keratinocytes (real-time qPCR, RQ); design: key: relative quantity vs DMSO vehicle control (qPCR)
Description: (§1) Neonatal human epidermal keratinocytes (nHEK) were cultivated in an EpiLife® medium (Gibco) including an HKGS kit (Gibco) with 5% CO2 at 37° C. in accordance with the supplier's instructions. The cells were treated for 24 hours, with 0.0005% of the different dicaffeoylquinic acids from above dissolved in DMSO and DMSO alone as the vehicle control. Genomic target expression levels in treated cells were measured using a quantitative Real-Time PCR comparison to vehicle control treatment.
(§2) RNA was isolated using Qiagen's RNeasy® Mini Kit. The total RNA concentrations were measured using Eppendorf's μCuvetteG 1.0 and BioPhotometer, by measuring the absorption at 260 nm. Purity control values such as E260/280 and E260/230 were calculated simultaneously. Reverse transcription was performed using the high-capacity RNA-to-cDNA kit of Applied Biosystems, in accordance with the supplier's instructions. Samples were treated in Biometra's PCR Thermocycler. For fast real-time qPCR, the cDNA was diluted with RNase-free water, and the TaqMan™ Fast Universal PCR Master Mix of Applied Biosystems was used. Quantitative real time PCR was performed using the StepOnePlus fast real-time PCR instrument by Applied Biosystems. Analysis was conducted using the StepOne software and […] (normalised to endogenous control […] expression). For upregulations, RQ values ≥2.5 are considered to be relevant.
(§3) Neonatal human epidermal keratinocytes (nHEK) were cultivated as described in Example 1 and treated for 24 hours with 0.0007% of the different monocaffeoylquinic acids. Afterwards fast real-time qPCR was performed as described in above using a customised gene array.
(§4) Neonatal human epidermal keratinocytes (nHEK) were cultivated as described in Example 1 and treated for 24 hours with 0.005% of the extract samples. Afterwards fast real-time qPCR was performed as described in above using a customized gene array.
(§5) Neonatal human epidermal keratinocytes (nHEK) were cultivated as described in Example 1 and treated for 24 hours with 4,5-dicaffeoylquinic acid (CAS number 14534-61-3, Phytolab GmbH & Co. KG) and (±)-α-tocopherol (CAS number 10191-41-0, synonym: Synonym: DL-α-Tocopherol, Vitamin E, Sigma-Aldrich, synthetic) alone and in combination. Afterwards fast real-time qPCR was performed as described in above using a customised gene array.
(§6) [formula] • With • A=RQ value by 4,5-dicaffeoylquinic acid at concentration x • B=RQ value by tocopherol at concentration y • C=RQ value by the combination of 4,5-dicaffeoylquinic acid at concentration x/2 and tocopherol at concentration y/2 • D=Factor for 4,5-dicaffeoylquinic acid=>0.5 (due to half concentration tested in the combination) • E=Factor for tocopherol=>0.5 (due to half concentration tested in the combination) • A SI=1 is obtained for additive activity of the two combined components, whereas a SI <1 proves antagonistic activity (observed efficacy is lower than additive) and SI >1 proves synergistic activity (observed efficacy is higher than additive).
(§7) Neonatal human epidermal keratinocytes (nHEK) were cultivated as described in Example 1 and treated for 24 hours with 3,4-dicaffeoylquinic acid (CAS number 57378-72-0, Phytolab GmbH & Co. KG) and (+)-α-tocopherol (CAS number 59-02-9, synonym: Synonym: D-α-tocopherol, Vitamin E, Sigma-Aldrich) alone and in combination. Afterwards fast real-time qPCR was performed as described in above using a customised gene array. For upregulations, RQ values ≥2.5 are considered to be relevant.
Neonatal human epidermal keratinocytes (nHEK) were cultivated as described above and treated for 24 hours with 3,5-dicaffeoylquinic acid (CAS number 2450-53-5, Phytolab GmbH & Co. KG) and D-α-tocopherol (CAS number 59-02-9, synonym: (+)-α-tocopherol, Vitamin E, trade name: Copherol® F 1300 C, BTC Europe GmbH) alone and in combination. Afterwards fast real-time qPCR was performed as described in above using a customised gene array. […]

DSC1 = assay: Modulation of DSC1 gene expression of keratinocytes (real-time qPCR, RQ); design: key: RQ: expression relative to DMSO vehicle control
Description: as §1, §2, §3, §4, §5, §6, §7
(§8) Neonatal human epidermal keratinocytes (nHEK) were cultivated as described above and treated for 24 hours with yarrow extract of example 3 (Achillea millefolium, freeze-dried fresh press juice of flowering aerials, cultivated in Germany) and (±)-α-tocopherol (CAS number 10191-41-0, synonym: Synonym: DL-α-Tocopherol, Vitamin E, Sigma-Aldrich, synthetic) alone and in two combinations. Afterwards fast real-time qPCR was performed as described in above using a customised gene array. […]

HSPB8 = assay: Modulation of HSPB8 gene expression of keratinocytes (real-time qPCR, RQ); design: key: RQ: expression relative to DMSO vehicle control (qPCR)
Description: as §1, §2, §3, §4, §5, §6
(§9) Neonatal human epidermal keratinocytes (nHEK) were cultivated as described above and treated for 24 hours with yarrow extract of example 3 (Achillea millefolium, freeze-dried fresh press juice of flowering aerials, cultivated in Germany) and (±)-α-tocopherol (CAS number 10191-41-0, synonym: Synonym: DL-α-Tocopherol, Vitamin E, Sigma-Aldrich, synthetic) alone and in two combinations. Afterwards fast real-time qPCR was performed as described in above using a customised gene array.

HSPB2 = assay: Modulation of HSPB2 gene expression of keratinocytes (real-time qPCR, RQ); design: key: relative quantity vs DMSO vehicle control (qPCR)
Description: as §1, §2, §3, §5, §6, §9

CLDN1 = assay: Modulation of CLDN1 gene expression of keratinocytes (real-time qPCR, RQ)
Description: as §1, §2, §3, §4, §5, §6, §7, §9

CRYAB = assay: Modulation of CRYAB gene expression of keratinocytes (real-time qPCR, RQ); design: key: relative quantity (RQ) vs DMSO vehicle-treated control
Description: as §1, §2, §3, §4, §5, §6
Neonatal human epidermal keratinocytes (nHEK) were cultivated as described above and treated for 24 hours with 3,5-dicaffeoylquinic acid (CAS number 2450-53-5, Phytolab GmbH & Co. KG) and D-α-tocopherol (CAS number 59-02-9, synonym: (+)-α-tocopherol, Vitamin E, trade name: Copherol® F 1300 C, BTC Europe GmbH) alone and in combination. Afterwards fast real-time qPCR was performed as described in above using a customised gene array.
as §8

DEFB1 = assay: Modulation of DEFB1 gene expression of keratinocytes (real-time qPCR, RQ); design: key: RQ = expression relative to DMSO vehicle control (qPCR)
Description: as §1, §2, §3, §5, §6, §9
as §9, with “(+)-α-tocopherol” for “(±)-α-tocopherol”, “59-02-9,” for “10191-41-0,”, “D-α-tocopherol,” for “DL-α-Tocopherol,”, “Sigma-Aldrich)” for “Sigma-Aldrich, synthetic)”, “combination.” for “two combinations.”

OCLN = assay: Modulation of OCLN gene expression of keratinocytes (real-time qPCR, RQ); design: key: RQ: expression relative to DMSO vehicle control (qPCR)
Description: as §1, §2, §3, §4, §5, §6, §9

Row | Structure (SMILES) | RQ value DSG1 (DSG1; 0.0005%, Example 1) | RQ value DSC1 (DSC1; 0.0005%, Example 1) | RQ value HSPB8 (HSPB8; 0.0005%, Example 1) | RQ value HSPB2 (HSPB2; 0.0005%, Example 1) | RQ value CLDN1 (CLDN1; 0.0005%, Example 1) | RQ value CRYAB (CRYAB; 0.0005%, Example 1) | RQ value DEFB1 (DEFB1; 0.0005%, Example 1) | RQ value OCLN (OCLN; 0.0005%, Example 1) | other results
1 | O=C(/C=C/c1ccc(O)c(O)c1)O[C@@H]1C[C@](OC(=O)/C=C/c2ccc(O)c(O)c2)(C(=O)O)C[C@@H](O)[C@H]1O [1,5-Dicaffeoylquinic acid, 1,5-dicaffeoylquinic acid] | 5.3 | 7.6 | 2.8 | 2.4 | 2.4 | 7.2 | 2.4 | 2.2 | 
2 | O=C(/C=C/c1ccc(O)c(O)c1)O[C@@H]1[C@H](O)C[C@@](O)(C(=O)O)C[C@H]1OC(=O)/C=C/c1ccc(O)c(O)c1 [3,4-Dicaffeoylquinic acid, 3,4-dicaffeoylquinic acid] | 14.9 | 25.8 | 7.3 | 4.9 | 5.1 | 18.7 | 3.5 | 4.2 | RQ value DSG1 (DSG1; 0.0006% alone, Example 5): 2.1; RQ value DSC1 (DSC1; 0.0006% alone, Example 5): 6.2; RQ value CLDN1 (CLDN1; 0.0006% alone, Example 5): 4.2
3 | O=C(/C=C/c1ccc(O)c(O)c1)O[C@@H]1CC(O)(C(=O)O)C[C@@H](OC(=O)/C=C/c2ccc(O)c(O)c2)C1O (stereo partly shown) [3,5-Dicaffeoylquinic acid, 3,5-dicaffeoylquinic acid] | 12.2 | 20.5 | 6.2 | 6.1 | 4.7 | 16.5 | 3.4 | 3.5 | RQ value DSG1 (DSG1; 0.0002% alone, Example 6): 2.4; RQ value CRYAB (CRYAB; 0.0002% alone, Example 6): 2.7
4 | O=C(/C=C/c1ccc(O)c(O)c1)O[C@@H]1C[C@](O)(C(=O)O)C[C@@H](O)[C@H]1O [3-caffeoyl-quinic acid, 3-Caffeoylquinic acid] |  |  |  |  |  |  |  |  | RQ value DSG1 (DSG1; 0.0007%, Example 2): 0.7; RQ value DSC1 (DSC1; 0.0007%, Example 2): 1.0; RQ value HSPB8 (HSPB8; 0.0007%, Example 2): 0.8; RQ value HSPB2 (HSPB2; 0.0007%, Example 2): 0.8; RQ value CLDN1 (CLDN1; 0.0007%, Example 2): 0.8; RQ value CRYAB (CRYAB; 0.0007%, Example 2): 0.9; RQ value DEFB1 (DEFB1; 0.0007%, Example 2): 1.1; RQ value OCLN (OCLN; 0.0007%, Example 2): 1.0
